Where a SMILES comes first, the peptide text is derived from it. [ ]: non-standard residue; d: D form. The star is where a group is joined. ξ: configuration not given here. Cbz = O=C(OCc1ccccc1)*; ξAze = O=C(O)C1CCN1
Key:
[1] = tested on: Calpain; assay: Measurement of calpain inhibiting effect (casein hydrolysis, IC50 by Probit); assay type: biochemical, Japanese white rabbit; details: 30 °C for 30 minutes, pH = 7.5, IC50 by method of Probit
Experimental: Test Example 1 Measurement of Calpain Inhibiting Effect
Calpain was separated from a skeletal muscle of a Japanese white rabbit and partially purified according to the method of Tsuji and Imahori as described in J.Biochem. 90, 233-240 (1981), whereby the calpain for use in a test for investigating the calpain inhibiting effect (i.e., the inhibitory effect on calpain activity) of the aldehyde compounds according to the present invention was prepared.
The calpain inhibiting effect was measured in accordance with the method of Yoshimura et al. as described in J. Biol. Chem. 258, 8883-8889 (1983).
Each assay mixture was prepared by mixing 0.05 ml of a 4% casein solution, 0.05 ml of a 50 mM cysteine solution, 0.05 ml of a calpain solution, 0.025 ml of purified water, 0.025 ml of a 10% dimethyl sulfoxide solution containing each compound shown in Table 15 and 0.25 ml of a 200 mM imidazole hydrochloric acid buffer solution (pH = 7.5).
The thus prepared assay mixture was preincubated at 30 ° C for 3 minutes. The reaction was started by the addition of 0.05 ml of a 50 mM calcium chloride solution to the above mixture. After the incubation at 30 °C for 30 minutes, the reaction was terminated by the addition of 0.5 ml of 5% trichloroacetic acid.
The amount of a trichloroacetic-acid-soluble protein produced by hydrolysis of casein by calpain was measured by the spectrophotometric analysis in accordance with the method of Ross and Schatz as described in Anal. Biochem. 54, 304-306 (1973), and the absorbance (a) of each sample was measured.
The absorbance (b) of a blank sample which was treated similarly without any of the aldehyde compounds of the present invention, dissolved in a 10% dimethyl sulfoxide solution, was measured.
The inhibition of calpain activity was calculated in accordance with the formula [(b-a)/b] X 100, and the amount of each aldehyde compound necessary to inhibit calpain activity by 50% [IC50] was calculated according to the method of Probit.

[2] = tested on: Platelet rich plasma (PRP); assay: Measurement of platelet-aggregation inhibiting effect (collagen-induced aggregation in platelet rich plasma); assay type: cell-based, Japanese white rabbit; details: collagen-induced aggregation in rabbit PRP, preincubated at 37°C for 5 minutes, IC50 by method of Probit
Experimental: Test Example 2 Measurement of Platelet-aggregation Inhibiting Effect
Platelet rich plasma (PRP) was prepared and the platelet aggregation was measured in accordance with the method of Born and Cross as described in J. Phystol. 168, 178-195 (1963).
Blood of a Japanese white rabbit was drawn from a carotid artery of the rabbit. 9 parts by volume of the blood were mixed with 1 part by volume of a 3.8% aqueous solution of sodium citrate. The mixture was immediately centrifuged at 200 x g at 20 °C for 15 minutes, and PRP was obtained in the supernate. The number of platelets was calculated by use of an electronic cell counter (MEK-4150 manufactured by Nihon Kohden Kabushiki Kaisha). PRP with 55 X 10^4 or more platelets per 1 µl was employed in the tests.
10 µl of a test solution containing any of the aldehyde compounds of the present invention was added to 200 µl of PRP. The mixture was preincubated at 37°C for 5 minutes. To this mixture, 10 µl of collagen (22 µg/ml) was added to cause the aggregation. The aggregation was measured by Agricometer (NKK, PAT-4A).
In preparing the above test solution, each compound synthesized in the previously mentioned Examples as shown in Table 16 was dissolved in combined dimethyl sulfoxide and polyoxyethylene 60 hardened castor oil in ethanol. The mixture was diluted with an isotonic saline and the final concentration of the dimethyl sulfoxide and polyoxyethylene 60 hardened castor oil contained in the above mixture was adjusted to less than 1 %.
The inhibitory activity of each aldehyde compound on platelet aggregation was expressed by percentages compared with a blank test defined as 100% which was performed without any of the aldehyde compounds.
The amount of each aldehyde compound necessary to inhibit the platelet aggregation by 50% [IC50] was calculated according to the method of Probit.

[3] = Oryctolagus cuniculus, Platelet

| Compound | IC50 [1] [nM] | IC50 [2, 3] [nM] | IC50 [2] [nM] |
| --- | --- | --- | --- |
| O=C[C@H](Cc1ccccc1)NC(=O)C1CCN(C(=O)OCc2ccccc2)CC1 [1-7, 1-benzyloxycarbonylpiperidine-4-carboxylic acid-(1S)-(1-formyl-2-phenyl)ethylamide] | 3000 | – | – |
| O=C[C@H](Cc1ccccc1)NC(=O)C1CCN(C(=O)CCCc2ccccc2)CC1 [1-26, 1-(4-phenylbutyryl)piperidine-4-carboxylic acid-(1S)-(1-formyl-2-phenyl)ethylamide] | 890 | – | – |
| O=C[C@H](Cc1ccccc1)NC(=O)C1CCN(C(=O)c2ccc3ccccc3c2)CC1 [1-28, 1-(2-naphthoyl)piperidine-4-carboxylic acid-(1S)-(1-formyl-2-phenyl)ethylamide] | 220 | – | – |
| Cc1ccc(S(=O)(=O)N2CCC(C(=O)N[C@H](C=O)Cc3ccccc3)CC2)cc1 [1-30, 1-(4-methylphenylsulfonyl)piperidine-4-carboxylic acid-(1S)-(1-formyl-2-phenyl)ethylamide] | 1100 | – | – |
| O=C[C@H](Cc1ccccc1)NC(=O)C1CCN(C(=O)c2cccs2)CC1 [1-32, 1-(2-thienylcarbonyl)piperidine-4-carboxylic acid-(1S)-(1-formyl-2-phenyl)ethylamide] | 2000 | – | – |
| O=C[C@H](Cc1ccccc1)NC(=O)C1CCN(S(=O)(=O)c2ccc3ccccc3c2)CC1 [1-34, 1-(2-naphthylsulfonyl)piperidine-4-carboxylic acid-(1S)-(1-formyl-2-phenyl)ethylamide] | 170 | – | – |
| O=C[C@H](Cc1ccccc1)NC(=O)C1CCN(C(=O)c2ccc(Cl)c(Cl)c2)CC1 [1-36, 1-(3,4-dichlorobenzoyl)piperidine-4-carboxylic acid-(1S)-(1-formyl-2-phenyl)ethylamide] | 780 | – | – |
| O=C[C@H](CCSCc1ccccc1Cl)NC(=O)C1CCN(C(=O)c2ccc3ccccc3c2)CC1 [1-51, 1-(2-naphthoyl)piperidine-4-carboxylic acid-(1S)-[1-formyl-3-(2-chlorobenzylthio)]propylamide] | 1400 | 10000 | – |
| O=C[C@H](CCSCc1ccc(Cl)cc1)NC(=O)C1CCN(C(=O)/C=C/c2ccccc2Cl)CC1 [1-62, 1-(2-chlorocinnamoyl)piperidine-4-carboxylic acid-(1S)-[1-formyl-3-(4-chlorobenzylthio)]-propylamide] | 1600 | 17000 | – |
| CC(C)C[C@H](OC(=O)Nc1ccccc1)C(=O)N[C@H](C=O)CCSCc1ccc(Cl)cc1 [2-27] | – | 65000 | – |
| O=C[C@H](Cc1ccccc1)NC(=O)C1CCN(C(=O)/C=C/c2ccccc2)CC1 [Compound No. 1-27, 1-cinnamoylpiperidine-4-carboxylic acid-(1S)-(1-formyl-2-phenyl)ethylamide] | 750 | 2900 | – |
| O=C[C@H](Cc1ccccc1)NC(=O)C1CCN(C(=O)/C=C/c2ccccc2Cl)CC1 [Compound No. 1-42, 1-(2-chlorocinnamoyl)piperidine-4-carboxylic acid-(1S)-(1-formyl-2-phenyl)ethylamide] | 350 | 23000 | – |
| O=C[C@H](Cc1ccccc1)NC(=O)C1CCN(C(=O)/C=C/c2ccc(Cl)cc2)CC1 [Compound No. 1-44, 1-(4-chlorocinnamoyl)piperidine-4-carboxylic acid-(1S)-(1-formyl-2-phenyl)ethylamide] | 990 | 47000 | – |
| O=C[C@H](Cc1c[nH]c2ccccc12)NC(=O)C1CCN(C(=O)/C=C/c2ccccc2Cl)CC1 [Compound No. 1-58, 1-(2-chlorocinnamoyl)piperidine-4-carboxylic acid-(1S)-[1-formyl-2-(3-indolyl)]ethylamide] | 680 | 22000 | – |
| O=C[C@H](Cc1ccc(OCc2ccccc2)cc1)NC(=O)C1CCN(C(=O)/C=C/c2ccccc2)CC1 [Compound No. 1-61, 1-cinnamoylpiperidine-4-carboxylic acid-(1S)-[1-formyl-2-(4-benzyloxyphenyl)]ethyl] | 880 | 9600 | – |
| CC(C)C[C@H](OC(=O)Nc1ccccc1)C(=O)N[C@H](C=O)Cc1ccccc1 [Compound No. 2-19] | 590 | 4200 | – |
| L-N-benzyloxycarbonylleucine-(2S)-[1-formyl-3-(2-chlorophenyl)thio]propylamide [Compound No. 3-42] | 440 | – | 94000 |
| L-N-benzyloxycarbonylleucine-(2S)-[1-formyl-3-(2-fluorophenyl)thio]propylamide [Compound No. 3-41] | 270 | – | 56000 |
| L-N-benzyloxycarbonylleucine-(2S)-[1-formyl-3-(4-chlorophenyl)thio]propylamide [Compound No. 3-43] | 520 | – | 52000 |

Further lines, with some results ahead:

| IC50 [1] [nM] | Compound | IC50 [2, 3] [nM] | IC50 [2] [nM] |
| --- | --- | --- | --- |
| 1900 | O=C[C@H](Cc1ccccc1)NC(=O)C1CCN(C(=O)C(c2ccccc2)c2ccccc2)CC1 [1-38, 1-(diphenylacetyl)piperidine-4-carboxylic acid-(1S)-(1-formyl-2-phenyl)ethylamide] | – | – |
| 2300 | O=C[C@H](Cc1ccccc1)NC(=O)C1CCN(C(=O)C2c3ccccc3-c3ccccc32)CC1 [1-39, 1-(9-fluorenylcarbonyl)piperidine-4-carboxylic acid-(1S)-(1-formyl-2-phenyl)ethylamide] | – | – |
| 940 | O=C[C@H](Cc1ccccc1)NC(=O)C1CCN(C(=O)Nc2ccccc2)CC1 [1-41, 1-(N-phenylcarbamoyl)piperidine-4-carboxylic acid-(1S)-(1-formyl-2-phenyl)ethylamide] | – | – |
| 1230 | CC(C)C[C@H](OC(=O)Nc1cccc2ccccc12)C(=O)N[C@H](C=O)CCc1ccccc1 [2-13] | – | – |
| 1900 | CSCC[C@@H](C=O)NC(=O)[C@H](CC(C)C)OC(=O)Nc1cccc2ccccc12 [2-14] | – | – |
| 6600 | CSCC[C@@H](C=O)NC(=O)C1CCN1C(=O)OCc1ccccc1 (stereo partly drawn) [Compound No. 1-1, (2R,2S)-1-benzyloxycarbonyl-azetidine-2-carboxylic acid-(1 S)-(1-formyl-3-methylthio)-propylamide] (Cbz-[ξAze]-Met-aldehyde) | – | – |
| 560 | O=C[C@H](Cc1ccccc1)NC(=O)C1CCN(C(=O)/C=C/c2cccc(Cl)c2)CC1 [Compound No. 1-43, 1-(3-chlorocinnamoyl)piperidine-4-carboxylic acid-(1S)-(1-formyl-2-phenyl)ethylamide] | – | – |
| 630 | O=C[C@H](Cc1ccccc1F)NC(=O)C1CCN(C(=O)c2ccc3ccccc3c2)CC1 [Compound No. 1-55, 1-(2-naphthoyl)piperidine-4-carboxylic acid-(1S)-[1-formyl-2-(2-fluorophenyl)]ethylamide] | – | – |
| 1600 | CSCC[C@@H](C=O)NC(=O)[C@H](CC(C)C)OC(=O)Nc1ccccc1 [Compound No. 2-3] | – | – |
| 3600 | CC(C)C[C@H](OC(=O)Nc1ccccc1)C(=O)N[C@H](C=O)CCSCc1ccccc1F [Compound No. 2-17] | – | – |
| 580 | CC(C)C[C@H](OC(=O)Nc1cccc2ccccc12)C(=O)N[C@H](C=O)CCSCc1ccccc1F [Compound No. 2-18] | – | – |
| 4400 | CC(C)C[C@H](OC(=O)Nc1cccc2ccccc12)C(=O)N[C@H](C=O)Cc1ccccc1 [Compound No. 2-20] | – | – |
| 2000 | CSCC[C@@H](C=O)NC(=O)[C@@H](OC(=O)Nc1ccccc1)C(C)C [Compound No. 2-21] | – | – |
| 3300 | CSCC[C@@H](C=O)NC(=O)[C@@H](OC(=O)Nc1cccc2ccccc12)C(C)C [Compound No. 2-22] | – | – |
